Source: patent publication US11717549B2, “Steviol glycoside solubility enhancers” (CARGILL, INCORPORATED, priority 2017, dated 2023)
Where two headings read alike, the source gives them in different places.

How the values were obtained:
[1] = Instantaneous solubility: vigorously mixed with water at room temperature (25° C.); format: physicochemical; conditions: in water at room temperature, absence of compounds that enhance solubility
Source text: (§1) The composition can optionally be expressed in terms of the concentration of one or more steviol glycoside(s). […] Clear solutions without precipitates are considered soluble. Unless indicated otherwise herein, the term “solubility” refers to “equilibrium solubility.”

[2] = Equilibrium solubility: mixed with deionized water at 80° C. for 15 minutes, cooled to room temperature, observed at least four days; format: physicochemical; conditions: after heating to 80° C. for 15 minutes
Source text: as §1

[3] = in beverage formulations; cited from earlier work
[4] = cited from earlier work
[5] = Observation for solubility / precipitation of acid and steviol glycoside samples in water (Example I); conditions: 0.3% steviol glycoside; 5:1 and 2:1 molar ratio of pamoic acid to steviol glycoside; pH not adjusted

Compound: C=C1C[C@@]23CC[C@H]4[C@@](C)(CCC[C@@]4(C)C(=O)O[C@@H]4O[C@H](CO)[C@@H](O)[C@H](O)[C@H]4O[C@@H]4O[C@H](CO)[C@@H](O)[C@H](O)[C@H]4O)[C@@H]2CC[C@]1(O[C@@H]1O[C@H](CO)[C@@H](O)[C@H](O[C@@H]2O[C@H](CO)[C@@H](O)[C@H](O)[C@H]2O)[C@H]1O[C@@H]1O[C@H](CO)[C@@H](O)[C@H](O)[C@H]1O)C3 [Rebaudioside D, rebaudioside D]
- instantaneous solubility [1]: less than 0.08%
- equilibrium solubility [2]: 0.08%

Compound: C=C1C[C@@]23CC[C@H]4[C@@](C)(CCC[C@@]4(C)C(=O)O[C@@H]4O[C@H](CO)[C@@H](O)[C@H](O[C@@H]5O[C@H](CO)[C@@H](O)[C@H](O)[C@H]5O)[C@H]4O[C@@H]4O[C@H](CO)[C@@H](O)[C@H](O)[C@H]4O)[C@@H]2CC[C@]1(O[C@@H]1O[C@H](CO)[C@@H](O)[C@H](O[C@@H]2O[C@H](CO)[C@@H](O)[C@H](O)[C@H]2O)[C@H]1O[C@@H]1O[C@H](CO)[C@@H](O)[C@H](O)[C@H]1O)C3 [Rebaudioside M, rebaudioside M]
- aqueous solubility and dissolution qualities [3]: poor aqueous solubility
- instantaneous solubility [1]: about 0.13%
- equilibrium solubility [2]: about 0.2%

Compound: CC(=O)O[C@@H](C(=O)O)c1ccccc1 [acetyl-r-mandelic acid]
- solubility (ppm) ([4]; temperature 25 ° C.): 1.11E+04 ppm

Compound: O=C(O)C(CO)c1ccccc1 (stereo not drawn) [alpha-(hydroxymethyl)benezeneacetic acid]
- solubility (ppm) ([4]; temperature 20 ° C.): 1.91E+04 ppm

Compound: O=C(O)[C@@H](O)c1ccccc1 [alpha-hydroxybenzeneacetic acid, (S)]
- solubility (ppm) ([4]; temperature 25 ° C.): 9.26E+04 ppm

Compound: O=C(O)C(=O)c1ccccc1 [alpha-oxobenzeneacetic acid]
- solubility (ppm) ([4]; temperature 0 ° C.): 4.79E+05 ppm

Compound: Nc1ccccc1C(=O)O [aniline-2-carboxylic acid]
- solubility (ppm) ([4]; temperature 20 ° C.): 3.48E+03 ppm

Compound: Nc1cccc(C(=O)O)c1 [aniline-3-carboxylic acid]
- solubility (ppm) ([4]; temperature 14.9 ° C.): 5.87E+03 ppm

Compound: Nc1ccc(C(=O)O)cc1 [aniline-4-carboxylic acid]
- solubility (ppm) ([4]; temperature 25 ° C.): 4.98E+03 ppm

Compound: O=C(O)CCc1ccccc1 [benzenepropanoic acid]
- solubility (ppm) ([4]; temperature 20 ° C.): 5.87E+03 ppm

Compound: CCNC(=O)COC(=O)c1ccccc1OC(C)=O [benzoic acid, 2-(acetyloxy)-, 2-(ethylamino)-2-oxoethyl ester]
- solubility (ppm) ([4]; temperature 21 ° C.): 5.49E+03 ppm

Compound: CN(CCO)C(=O)COC(=O)c1ccccc1O [benzoic acid, 2-hydroxy-, 2-[(2-hydroxyethyl)methylamino]-2-oxoethyl ester]
- solubility (ppm) ([4]; temperature 21 ° C.): 6.26E+03 ppm

Compound: O=C(O[C@@H](C(=O)O)c1ccccc1)c1ccccc1 [benzoyl-r-mandelic acid]
- solubility (ppm) ([4]; temperature 25 ° C.): 7.78E+03 ppm

Compound: N[C@@H](CSCSC[C@H](N)C(=O)O)C(=O)O [djenkolic acid]
- solubility (ppm) ([4]; temperature 100 ° C.): 4.98E+03 ppm

Compound: CCOc1ccc(NC(=O)C(O)C(O)C(=O)O)cc1 (stereo not drawn) [ethonyphenyl tartramic acid]
- solubility (ppm) ([4]; temperature 14 ° C.): 3.97E+03 ppm

Compound: O=C(O)c1cc2c(cc1C(=O)O)OCO2 [hydrastic acid]
- solubility (ppm) ([4]; temperature 15 ° C.): 5.96E+03 ppm

Compound: CC(=O)N(CC(C)C(=O)O)c1c(I)cc(I)c(N)c1I (stereo not drawn) [iocetamic acid]
- solubility (ppm) ([4]; temperature 37 ° C.): 5.26E+03 ppm

Compound: CCC(COCCOc1c(I)cc(I)c(NC(C)=O)c1I)C(=O)O (stereo not drawn) [iopronic acid]
- solubility (ppm) ([4]; temperature 37 ° C.): 1.97E+04 ppm

Compound: CC(C)C1C(=O)NC(=O)NC1=O [isopropylbarbituric acid]
- solubility (ppm) ([4]; temperature 20 ° C.): 5.89E+03 ppm

Compound: O=C(O)c1cccc(O)c1 [m-hydroxybenzoic acid]
- solubility (ppm) ([4]; temperature 20 ° C.): 8.45E+03 ppm

Compound: O=C(O)c1cccc([N+](=O)[O-])c1 [m-nitrobenzoic acid]
- solubility (ppm) ([4]; temperature 25 ° C.): 3.53E+03 ppm

Compound: O=C(O)C(O)c1ccccc1 (stereo not drawn) [mandelic acid (almonds), mandelic acid]
- solubility (ppm) ([4]; temperature 25 ° C.): 1.53E+05 ppm

Compound: O=C(O)c1ccccc1[N+](=O)[O-] [o-nitrobenzoic acid]
- solubility (ppm) ([4]; temperature 25 ° C.): 7.44E+03 ppm

Compound: CCCCCCCCC(C(=O)O)C(=O)O [octylpropanedioic acid]
- solubility (ppm) ([4]; temperature 25 ° C.): 5.53E+03 ppm

Compound: O=C(O)C(=O)Nc1ccccc1 [oxanilic acid]
- solubility (ppm) ([4]; temperature 25 ° C.): 8.17E+03 ppm

Compound: O=C(O)c1ccc(O)cc1 [p-hydroxybenzoic acid]
- solubility (ppm) ([4]; temperature 25 ° C.): 6.36E+03 ppm

Compound: O=C(O)C(=O)c1ccccc1C(=O)O [phthalonic acid]
- solubility (ppm) ([4]; temperature 15 ° C.): 3.49E+05 ppm

Compound: CC1=NN(c2ccc([N+](=O)[O-])cc2)C(=O)C1[N+](=O)[O-] (stereo not drawn) [picrolonic acid]
- solubility (ppm) ([4]; temperature 17 ° C.): 8.92E+03 ppm

Compound: CCCOC(=O)OC(C)C(=O)OC (stereo not drawn) [propanoic acid, 2-[(propoxycarbonyl)oxy]-, methyl ester]
- solubility (ppm) ([4]; temperature 25 ° C.): 5.15E+03 ppm

Compound: CCC(=O)O[C@@H](C(=O)O)c1ccccc1 [propionyl-r-mandelic acid]
- solubility (ppm) ([4]; temperature 25 ° C.): 5.15E+03 ppm

Compound: O=C(O)c1cc(C(=O)O)c(C(=O)O)cc1C(=O)O [pyromellitic acid]
- solubility (ppm) ([4]; temperature 16 ° C.): 1.40E+04 ppm

Compound: O=C(O)[C@]1(O)C[C@@H](O)[C@@H](O)[C@H](O)C1 [quinic acid (coffee beans), quinic acid]
- solubility (ppm) ([4]; temperature 9 ° C.): 2.25E+05 ppm

Compound: CC(C)(C(=O)O)C(C)(C)C(=O)O [tetramethylbutanedioic acid]
- solubility (ppm) ([4]; temperature 13.5 ° C.): 4.78E+03 ppm

Compound: CCCC/C=C/C(=O)O [trans-2-heptenoic acid]
- solubility (ppm) ([4]; temperature 25 ° C.): 5.37E+03 ppm

Compound: O=C(O)CCCCCCCCCC(=O)O [undecanedioic acid]
- solubility (ppm) ([4]; temperature 21 ° C.): 5.07E+03 ppm

Compound: pamoic acid
- solubility of sample (conclusion) [5]: not initially soluble and remained insoluble at least after 1 day
